We go through one molecule from publication PMC5730592, “Parallelogram based approach for in vivo dose estimation of genotoxic metabolites in humans with relevance to reduction of animal experiments” (Scientific Reports, 2017).

Values joined by “and” are separate entries in the source; they are usually repeats but may differ in a detail not shown here. Equal entries are not always repeated.

Data set [1] in a line: Parallelogram approach estimation of AUC-GA in human. The conditions noted are these: predicted ratio × measured human AUC-AA. An excerpt:
The parallelogram approach representing inter-species comparison of in vivo dose and the use of in vitro data is shown in Fig. 1 for the metabolic transformation of R to RX, which is referred to as the metabolism of AA to GA in the present study. This figure can be formulated to Eq. 1 as described in Methods (cf. Eq. 5), where the superscripts H and R represent the corresponding AUC or EE in human and rat, respectively.1 AUC^H−RX/AUC^R−RX=EE^H−R→RX/EE^H−RXel/EE^R−R→RX/EE^R−RXel×AUC^H−R/AUC^R−R
The in vitro data on enzyme kinetics from human and rat (Table 1), and the in vivo data on AUC of AA and of GA in rat (Table 2) were used to calculate the predictive value of AUC-GA per AUC-AA in human, according to the parallelogram approach (cf. Methods, Eq. 5). This was calculated to 0.087 (Table 3). […] It was observed that the AUC-GA in human and rat predicted by the parallelogram approach and from measured Hb adduct levels, respectively, differed with about a factor of 3 (cf. Tables 2 and 3). This difference is within the variability range of AUC-GA for respective species calculated from different in vivo studies. […]

Data set [2] in a line: In vivo dose (AUC) in rat calculated from measured Hb adduct levels after AA exposure. The conditions noted are these: from Hb adduct levels. As to the method: The in vivo dose or AUC of a compound in blood is the concentration integrated over time (Eq. 2).2 AUC=∫tC(t)dt A method to infer the AUC of an electrophilic compound or metabolite from measured Hb adduct levels (A) has been developed and established by our research group for quantitative monitoring of exposure in humans or for application in animal studies[1],[3]. When Hb adduct formation is measured a short time after a single acute exposure, or after incubation in vitro, AUC can be calculated using Eq. 3. This equation is based on A, and the second-order reaction rate constant (kNu) for the formation of an adduct to a nucleophilic site in Hb from the concerned electrophile.3 AUC=A/kNu
For calculating the daily AUC from a longer duration of exposure, the daily adduct level increments (a) have to be calculated considering the accumulation and elimination of adducts due to lifetime of the erythrocytes (t er). […] From continuous or subchronic exposure when the exposure time (t) is shorter than t er, the accumulated adduct level is calculated [a × t × (1 − t/2t er)][49].
For in vivo data on AUC of AA and of GA from AA exposure in rats, a study on short-term oral exposure of rats was used[24]. […] Blood samples were collected and AA- and GA-adducts to N-terminal valine in Hb were measured as described above, and recalculated to the daily increment of the adduct level. […]

The conditions of data set [3]: male rat, different AA exposure studies, various methods; cited from earlier work.

Take `NC(=O)C1CO1` (racemic) [GA, rac-Glycidamide]: the “AUC-GA estimated from the parallelogram approach” value in data set [1] was 18 nM·h/μg AA per kg bw and 18^a nM·h/μg AA per kg bw. Besides, in data set [2], the “ratio between species (rat-to-human) of AUC-GA per AUC-AA” value is on record as 2.3. Also, in data set [3], the “range of AUC-GA” value was 13–52 nM·h per μg AA per kg bw.
